According to patent US20250346556A1, “IMPROVEMENTS IN OR RELATING TO ORGANIC COMPOUNDS” (Givaudan SA, priority 2019, published 2025):

Experiments:
Type in all cases: in vivo
[1] = Taste evaluation, comparison with MSG, by 5 trained panellists
Experimental: An aqueous NaCl solution (0.5% by weight) was prepared. To this base was added: • a) 30 ppm of the compound Ia (sample 6a); • b) 200 ppm of MSG (sample 6b, benchmark).
The tastes of the two samples 6a and 6b have been evaluated by 5 trained panellists. They were asked to rate the intensity of sample 6a as difference to sample 6b and to describe the overall effect. Typically, the following descriptors are used to describe the effect: umami, salty, bitter, overall sweet.

[2] = Taste evaluation, comparison with further derivatives, by 5 trained panellists; settings: 20 ppm in aqueous NaCl solution (0.5% by weight); compared with 20 ppm compound Ia
Experimental: An aqueous NaCl solution (0.5% by weight) was prepared. To this base was added: • a) 20 ppm of the compound Ia (sample 7a); • b) 20 ppm of the compound Ib (sample 7b); • c) 20 ppm of the compound Ic (sample 7c).
The tastes of the three samples 7a, 7b and 7c have been evaluated by 5 trained panellists.

[3] = Taste evaluation of amide ester analogues by four experienced tasters; settings: 20 ppm in aqueous NaCl (0.5% by weight) and MSG (0.05% by weight)
Experimental: An aqueous solution of NaCl (0.5% by weight) and MSG (0.05% by weight) was prepared. To this base was added: • a) 20 ppm of the mixture of the compound (Id+Ie) in a ratio 1:2 (sample 8a); • b) 20 ppm of the compound If (sample 8b).
A group of four experienced tasters compared the samples 8a and 8b with the pure base.

With `C/C=C(\C)C(=O)NCCCCNC(=O)C=Cc1ccccc1` [compound Ia, (E)-N-(4-cinnamamidobutyl)-2-methylbut-2-enamide] the overall preference ([1]; 30 ppm in 0.5% NaCl versus 200 ppm MSG (sample 6b)) was “preferred over sample 6b”, the “umami on bitter level versus benchmark” value ([1]; 30 ppm in 0.5% NaCl versus 200 ppm MSG (sample 6b, benchmark)) was “a little higher than benchmark” and the taste description ([1]; 30 ppm in aqueous NaCl solution (0.5% by weight), 5 trained panellists) was “umami, brothy and longlasting”.
With `C/C=C(\C)C(=O)NCCCCNC(=O)/C=C/c1ccc(OC)cc1` [compound Ib, (E)-N-(4-((E)-3-(4-methoxyphenyl)acrylamido)butyl)-2-methylbut-2-enamide] the “taste description in comparison to sample 7a” value [2] was “more umami, stronger and more lingering, more sweet, but having an off note, animalic, floral sweet”.
For `C/C=C(\C)C(=O)NCCCCNC(=O)c1ccc(OC)cc1` [compound Ic, (E)-4-methoxy-N-(4-(2-methylbut-2-enamido)butyl)benzamide], the “taste description in comparison to sample 7a” value [2] was “more umami and cleaner umami than sample 7a”.
For `C/C=C(\C)C(=O)NCCCCOC(=O)C=Cc1ccccc1` [compound If, 4-((E)-2-methylbut-2-enamido)butyl cinnamate], the additional taste description [3] was “a pleasant taste experience” and the “umami compared with the pure base” value ([3]; four tasters, unanimous) was “more umami than the base”.
